# Source: patent US20230065953A1, “NOVEL HETEROARYL-TRIAZOLE COMPOUNDS AS PESTICIDES” (Bayer Aktiengesellschaft, priority 2019, published 2023)
# Legend:
# Assay type in all cases: in vivo
# [1] = system: adult engorged female ticks (Rhipicephalus microplus); experiment: Rhipicephalus (Boophilus) microplus injection test; settings: 168 h, 4 μg/animal, egg deposition after 7 days, read-out: efficacy (infertile eggs)
# Description: Rhipicephalus (Boophilus) Microplus—Injection Test
# (§1) Solvent: dimethyl sulfoxide
# To produce a suitable preparation of active compound, 10 mg of active compound are dissolved in 0.5 mL solvent, and the concentrate is diluted with solvent to the desired concentration.
# Five adult engorged female ticks (Rhipicephalus microplus) are injected with 1 μL compound solution into the abdomen. The ticks are transferred into replica plates and incubated in a climate chamber.
# After 7 days egg deposition of fertile eggs is monitored. Eggs where fertility is not visible are stored in a climate chamber till hatching after about 42 days. An efficacy of 100% means all eggs are infertile; 0% means all eggs are fertile.
# [2] = system: larvae of the banded cucumber beetle (Diabrotica balteata); experiment: Diabrotica balteata spray test; settings: 168 h, 100 g/ha (=32 μg/well), wheat seeds, after 7 days, read-out: efficacy (seedling growth)
# Description: Diabrotica Balteata—Spray Test
# • Solvent: 78.0 parts by weight of acetone • 1.5 parts by weight of dimethylformamide • Emulsifier: alkylarylpolyglycol ether
# Further test concentrations are prepared by dilution with emulsifier containing water.
# Soaked wheat seeds (Triticum aestivum) are placed in a multiple well plate filled with agar and some water and are incubated for 1 day to germinate (5 seeds per well). The germinated wheat seeds are sprayed with a test solution containing the desired concentration of the active ingredient. Afterwards each unit is infected with 10-20 larvae of the banded cucumber beetle (Diabrotica balteata).
# After 7 days efficacy in % is determined.
# [3] = system: adult unfed cat fleas (Ctenocephalides felis); experiment: Ctenocephalides felis oral test; settings: 48 h
# Description: Ctenocephalides felis—Oral Test
# as §1
# To produce a suitable preparation of active compound, 10 mg of active compound are dissolved in 0.5 mL solvent, and the concentrate is diluted with cattle blood to the desired concentration.
# Approximately 20 adult unfed cat fleas (Ctenocephalides felis) are placed in flea chambers. The blood chamber, sealed with parafilm on the bottom, are filled with cattle blood supplied with compound solution and placed on the gauze covered top of the flea chamber, so that the fleas are able to suck the blood. The blood chamber is heated to 37° C. whereas the flea chamber is kept at room temperature.
# After 2 days mortality in % is determined. 100% means all the fleas have been killed; 0% means none of the fleas have been killed.
# [4] = system: Rhipicephalus microplus larvae (strain Parkhurst, resistant against synthetic pyrethroids); experiment: Rhipicephalus (Boophilus) microplus in-vitro contact test, larval cattle tick; settings: 5 μg/cm^2 (=500 g/ha), after 48 hours, read-out: efficacy (larvae dead or moribund)
# Description: Rhipicephalus (Boophilus) Microplus—In-Vitro Contact Tests Larval Cattle Tick (Strain Parkhurst, Resistant Against Synthetic Pyrethroids)
# 9 mg compound is solved in 1 mL acetone and diluted with acetone to the desired concentration. 250 μL of the test solution is filled in 25 mL glass test tubes and homogeneously distributed on the inner walls by rotation and tilting on a shaking device (2 h at 30 rpm). With a compound concentration of 900 ppm, an inner surface of 44.7 cm^2 and a homogeneous distribution, a dose of 5 μg/cm^2 is achieved.
# After the solvent has evaporated, each test tube is filled with 20-50 cattle tick larvae (Rhipicephalus microplus), closed with a perforated lid and incubated in a horizontal position at 85% relative humidity and 27° C. in an incubator. After 48 hours efficacy is determined. The larvae are patted on the ground of the tubes and negative geotactic behavior is recorded.
# An efficacy of 100% means all larvae are dead or moribund; 0% means no larvae are dead or moribund.
# [5] = system: fall armyworm larvae (Spodoptera frugiperda); experiment: Spodoptera frugiperda spray test (maize leaf sections); settings: 168 h
# Description: Spodoptera frugiperda—Spray Test • Solvent: 78.0 parts by weight acetone • 1.5 parts by weight dimethylformamide • Emulsifier: alkylarylpolyglycol ether
# (§2) To produce a suitable preparation of active compound, 1 part by weight of active compound is mixed with the stated amount of solvents and is diluted with water, containing an emulsifier concentration of 1000 ppm, to the desired concentration. Further test concentrations are prepared by dilution with emulsifier containing water.
# Maize (Zea mays) leaf sections are sprayed with a preparation of the active ingredient of the desired concentration. Once dry, the leaf sections are infested with fall armyworm larvae (Spodoptera frugiperda).
# After 7 days mortality in % is determined. 100% means all caterpillars have been killed and 0% means none of the caterpillars have been killed.
# [6] = system: green peach aphid (Myzus persicae); experiment: Myzus persicae oral test; settings: 120 h
# Description: Myzus persicae—oral test • Solvent: 100 parts by weight acetone
# To produce a suitable preparation of active compound, 1 part by weight of active compound is mixed with the stated amount of solvent, and the concentrate is diluted with water to the desired concentration. 50 μL compound solution is filled in microtiter plates and 150 μL IPL41 insect medium (33%+15% sugar) is added to obtain a total volume of 200 μL per well. Afterwards the plates are sealed with parafilm through which a mixed population of the green peach aphid (Myzus persicae) can suck on the compound preparation.
# (§3) After 5 days mortality in % is determined. 100% means all aphids have been killed and 0% means none of the aphids have been killed.
# [7] = system: green peach aphid (Myzus persicae); experiment: Myzus persicae spray test; settings: foliar, 120 h, Chinese cabbage leaf disks, after 5 days
# Description: Myzus persicae—Spray Test • Solvent: 78.0 parts by weight acetone • 1.5 parts by weight dimethylformamide • Emulsifier: alkylarylpolyglycol ether
# as §2
# Chinese cabbage (Brassica pekinensis) leaf disks infected with all instars of the green peach aphid (Myzus persicae), are sprayed with a preparation of the active ingredient of the desired concentration.
# as §3
# [8] = system: larvae of the southern green stink bug (Nezara viridula); experiment: Nezara viridula spray test; settings: in Hordeum vulgare, 96 h
# Description: Nezara viridula—Spray Test • Solvent: 78.0 parts by weight of acetone • 1.5 parts by weight of dimethylformamide • Emulsifier: alkylarylpolyglycol ether
# To produce a suitable preparation of active compound, 1 part by weight of active compound is mixed with the stated amount of solvent, and the concentrate is diluted with water, containing an emulsifier concentration of 1000 ppm, to the desired concentration. Further test concentrations are prepared by dilution with emulsifier containing water.
# Barley plants (Hordeum vulgare) are sprayed with a test solution containing the desired concentration of the active ingredient and are infested with larvae of the southern green stink bug (Nezara viridula).
# After 4 days mortality in % is determined. 100% means all the stink bugs have been killed; 0% means none of the stink bugs have been killed.
# [9] = system: adult flies Musca domestica strain WHO-N; experiment: Musca domestica test (MUSCDO surface treatment & contact assay); settings: surface concentration 20 mg/m^2, 30 min exposure, 24 hours after contact, read-out: efficacy (mortality)
# Description: Musca domestica Test (MUSCDO Surface Treatment & Contact Assay) • Solvent: Aceton+2000 ppm rapeseed oil methyl ester (RME)
# In order to produce a sufficient, active ingredient containing solution it is necessary to solve the test compound in the solvent-mix (acetone at 2 mg/ml/RME 2000 ppm). This solution is pipetted onto a glazed tile and after evaporation of the acetone, adult flies of the species Musca domestica strain WHO-N are placed onto the dried surface. The exposure time is 30 minutes.
# Mortality in percent (%) is determined 24 hours after contact of the insects to the treated surface. 100% mortality means that all tested insects are dead, whereas 0% means that no insect died.
SMILES,pest or weed control at 0.004 mg [1],"pest or weed control at 32 µg/disc, 100 g/ha [2]",mortality at 100 ppm [3],pest or weed control at 5 µg/cm2 [4],mortality at 100 g/ha [5],mortality at 4 ppm [6],mortality at 100 g/ha [7],mortality at 500 g/ha [8],mortality at 20 mg/m2 [9],mortality at 100 g/ha [8]
CC(NC(=O)c1cc(Br)cc(Br)c1)c1ncnn1-c1ncc(C#N)s1 (centres unmarked) [I-27],100%,100%,100%,,,,,,,
CC(NC(=O)c1cc(Br)cc(I)c1)c1ncnn1-c1ncc(C#N)s1 (centres unmarked) [I-29],100%,,100%,90%,,,,,,
"C[C@H](NC(=O)c1cc(Cl)cc(S(C)(=O)=O)c1)c1nc(C2CC2)nn1-c1ncc(C#N)s1 [I-40, 3-chloro-N-{(1S)-1-[1-(5-cyano-1,3-thiazol-2-yl)-3-cyclopropyl-1H-1,2,4-triazol-5-yl]ethyl}-5-(methylsulfonyl)benzamide]",,80%,,,100%,90%,,,,
C[C@H](NC(=O)c1cc(Cl)cc(S(=O)(=O)C2CC2)c1)c1nc(C2CC2)nn1-c1ncc(C#N)s1 [I-42],,100%,,,100%,100%,,,,
C[C@H](NC(=O)c1cc(Cl)cc(S(=O)(=O)C2CC2)c1)c1ncnn1-c1ncc(C#N)s1 [I-46],,100%,,,100%,,90%,100%,,
C[C@H](NC(=O)c1cc(Cl)cc(Br)c1)c1ncnn1-c1ncc(C#N)s1 [I-59],,100%,,,100%,,,,80 to 100%,
Cc1nc([C@H](C)NC(=O)c2cc(Cl)cc(C(F)(F)F)c2)n(-c2ncc(C(=O)NC3CC3)s2)n1 [I-66],100%,100%,,100%,100%,100%,90%,,,
Cc1nc([C@H](C)NC(=O)c2cc(Cl)cc(C(F)(F)F)c2)n(-c2ncc(C(=O)NCC3CC3)s2)n1 [I-67],100%,100%,,100%,100%,100%,,,,
Cc1nc([C@H](C)NC(=O)c2cncc(C(F)(F)F)c2)n(-c2ncc(C(=O)N(C)CC#N)s2)n1 [I-73],,,,100%,,100%,90%,,,
Cc1nc([C@H](C)NC(=O)c2cc(Cl)cc(S(=O)(=O)C3CC3)c2)n(-c2ncc(C(=O)N(C)CC#N)s2)n1 [I-74],,,,,,100%,90%,,,
Cc1nc([C@H](C)NC(=O)c2cc(Cl)cc(S(C)(=O)=O)c2)n(-c2ncc(C(=O)N(C)C)s2)n1 [I-78],,,,,,100%,,,,
Cc1nc([C@H](C)NC(=O)c2cc(Cl)cc(S(C)(=O)=O)c2)n(-c2ncc(C(=O)N(C)CC#N)s2)n1 [I-79],,,,,,100%,,,,
Cc1nc([C@H](C)NC(=O)c2cc(Cl)cc(I)c2)n(-c2ncc(C(=O)N(C)CC#N)s2)n1 [I-81],,100%,,100%,100%,100%,,,,
C[C@H](NC(=O)c1cc(OC(F)F)cc(OC(F)(F)F)c1)c1ncnn1-c1ncc(C#N)s1 [I-100],,100%,,,100%,,90%,100%,,100%
C[C@H](NC(=O)c1cc(C(F)(F)F)cc(S(C)(=O)=O)c1)c1nc(C2CC2)nn1-c1ncc(C#N)s1 [I-103],,100%,,,100%,,,90%,80 to 100%,
CNC(=O)c1cnc(-n2ncnc2[C@H](C)NC(=O)c2cc(OC(F)F)cc(OC(F)F)c2)s1 [I-112],,100%,,,100%,,100%,100%,,100%
CNC(=O)c1cnc(-n2ncnc2[C@H](C)NC(=O)c2cc(Cl)cc(S(=O)(=O)C(F)F)c2)s1 [I-114],,100%,,,100%,,90%,100%,,100%
CNC(=O)c1cnc(-n2ncnc2[C@H](C)NC(=O)c2cc(C(F)F)cc(C(F)F)c2)s1 [I-137],,100%,,,100%,,90%,100%,,
C[C@H](NC(=O)c1cc(OC(F)(F)F)cc(S(=O)(=O)C(F)F)c1)c1ncnn1-c1ncc(C(=O)N(C)C)s1 [I-171],,100%,,,100%,,100%,100%,,
